Values of other authors, collected in the CATMoS acute toxicity set (Mansouri et al. 2021).
“And” between values parts separate entries of the source, which are not always exact repeats. Equal values may be shown once.

assay: rat acute oral toxicity; conditions: in vivo

Q: With O=C1CSC2(CCN(CCCN3c4ccccc4Sc4ccc(Cl)cc43)CC2)N1 as the molecule, how does the LD50 read?
A: 3800 mg/kg

Q: For c1ccc(-c2cccc(-c3ccccc3)c2)cc1, which LD50 is on record?
A: 2400 mg/kg

Q: For CCCCC(CC)COP(=O)(O)OCC(CC)CCCC (stereo not drawn), which LD50 is on record?
A: 4940 mg/kg

Q: For Oc1ccc(Cc2ccc(O)cc2)cc1, which LD50 is on record?
A: 4950 mg/kg

Q: Which LD50 does the source give for CCC1(CC)C(=O)C=CN(CN2CCOCC2)C1=O here?
A: 1950 mg/kg

Q: For CC(C)/N=c1/cc2n(-c3ccc(Cl)cc3)c3ccccc3nc-2cc1Nc1ccc(Cl)cc1, which LD50 is on record?
A: 8400 mg/kg

Q: With CCCCCCCC(=O)Oc1ccc(C)cc1 as the molecule, how does the LD50 read?
A: 1600 mg/kg

Q: Which LD50 does the source give for O=C1[C@H]2C[C@@H]3[C@@H]4[C@H]2[C@]2(Cl)[C@@H](Cl)[C@](Cl)([C@H]13)[C@@]4(Cl)C2(Cl)Cl (racemic) here?
A: 10 mg/kg

Q: With Cc1ncc(CSCc2cnc(C)c(O)c2CO)c(CO)c1O as the molecule, how does the LD50 read?
A: 7500 mg/kg

Q: Which LD50 does the source give for CCOc1ccc(C=O)cc1 here?
A: 2100 mg/kg

Q: For CCOc1ccccc1N1CCN(CCCc2ccc3c(c2)CCC(=O)N3)CC1, which LD50 is on record?
A: 500 mg/kg

Q: For CCN(CC)C(=S)S, which LD50 is on record?
A: 1000 mg/kg

Q: Which LD50 does the source give for CC(C)=CCC/C(C)=C\CO here?
A: 4500 mg/kg

Q: For CCOc1ccc(C2CC(N(CC)CC)c3ccccc32)cc1 (stereo not drawn), which LD50 is on record?
A: 860 mg/kg

Q: Which LD50 does the source give for COC(=O)Nc1nc2cc(C(=O)c3ccccc3)ccc2[nH]1 here?
A: 714 mg/kg

Q: For CNC(=O)Nc1c(OCCN2CCCC2)c(OC)c2occc2c1OC, which LD50 is on record?
A: 1050 mg/kg

Q: With CC1=CCC(C(C)C)C=C1 (stereo not drawn) as the molecule, how does the LD50 read?
A: 5700 mg/kg

Q: For CCCCCCCCCCCCSC#N, which LD50 is on record?
A: 1250 mg/kg

Q: Which LD50 does the source give for CCCn1cnc2c1c(=O)n(CCCCC(C)=O)c(=O)n2C here?
A: 940 mg/kg

Q: For COC(=O)c1ccc(I)cc1S(=O)(=O)NC(=O)Nc1nc(C)nc(OC)n1, which LD50 is on record?
A: 2680 mg/kg

Q: For O=C(O)CNCP(=O)(O)O, which LD50 is on record?
A: 4870 mg/kg and 10500 mg/kg

Q: For NC(=O)OCCCc1ccccc1, which LD50 is on record?
A: 1110 mg/kg

Q: For O=S(=O)(O)OCCOc1cc(Cl)c(Cl)cc1Cl, which LD50 is on record?
A: 720 mg/kg

Q: For CN(N=O)c1ccncc1, which LD50 is on record?
A: 200 mg/kg

Q: For O=C1CN=C(c2ccccc2)c2cc([N+](=O)[O-])ccc2N1, which LD50 is on record?
A: 825 mg/kg

Q: Which LD50 does the source give for CN=C(O)O/N=C1/SCOC1(C)C here?
A: 2 mg/kg

Q: With CCCCCCCCCc1ccc(O)cc1 as the molecule, how does the LD50 read?
A: 1620 mg/kg

Q: For CC(C)(C)N, which LD50 is on record?
A: 96 mg/kg

Q: With O=C1CCc2cc(C(=O)CCCN3CCN(c4ccccc4Cl)CC3)ccc2N1 as the molecule, how does the LD50 read?
A: 500 mg/kg

Q: For CCCCCCCCCCC(C)c1ccc(S(=O)(=O)O)cc1 (stereo not drawn), which LD50 is on record?
A: 437 mg/kg

Q: With COc1ccc(N=NN(C)C)cc1 as the molecule, how does the LD50 read?
A: 347 mg/kg

Q: For NS(=O)(=O)c1ccc2nc(C(F)(F)F)[nH]c2c1, which LD50 is on record?
A: 21 mg/kg

Q: Which LD50 does the source give for O=C1OCc2c(Cl)c(Cl)c(Cl)c(Cl)c21 here?
A: 20000 mg/kg

Q: For CCCCCc1cc(O)c2c(c1)OC(C)(C)[C@@H]1CC=C(C)C[C@@H]21, which LD50 is on record?
A: 860 mg/kg

Q: Which LD50 does the source give for Brc1cnc[nH]1 here?
A: 250 mg/kg

Q: Which LD50 does the source give for CCCCc1c(C)nc2cccc(C)n2c1=O here?
A: 1100 mg/kg

Q: For O=C(O)CONC(=O)c1ccccc1, which LD50 is on record?
A: 2500 mg/kg

Q: With ClC1=C(Cl)C2(Cl)C3C4C=CC(O4)C3C1(Cl)C2(Cl)Cl (stereo not drawn) as the molecule, how does the LD50 read?
A: 68 mg/kg

Q: With O=C1CCc2cc(CCCN3CCN(c4ccccc4)CC3)ccc2N1 as the molecule, how does the LD50 read?
A: 500 mg/kg

Q: For O=C(O)Cc1ccc(OCC2CC2)c(Cl)c1, which LD50 is on record?
A: 895 mg/kg

Q: For COS(=O)(=O)c1ccccc1, which LD50 is on record?
A: 740 mg/kg

Q: Which LD50 does the source give for Cc1ccc(O)c([N+](=O)[O-])c1 here?
A: 3360 mg/kg

Q: Which LD50 does the source give for COC(=O)/C=C(\C)OP(=O)(OC)OC here?
A: 3 mg/kg

Q: For CNC(=O)ON=CC(C)(C)OC, which LD50 is on record?
A: 15 mg/kg

Q: With Cc1cc(Cl)ccc1O as the molecule, how does the LD50 read?
A: 1190 mg/kg

Q: Which LD50 does the source give for CCCN(CCC)C(=O)C(Cc1ccc(OCCN(CC)CC)cc1)NC(=O)c1ccccc1 (stereo not drawn) here?
A: 800 mg/kg and 1070 mg/kg

Q: For Cn1c(=O)c2c(ncn2CCCCN2CCN(c3ccc(F)cc3)CC2)n(C)c1=O, which LD50 is on record?
A: 353 mg/kg

Q: For CC(=O)OC(C)C(Cl)(Cl)Cl (stereo not drawn), which LD50 is on record?
A: 900 mg/kg

Q: With O=C(O)C(S)C(S)C(=O)O (stereo not drawn) as the molecule, how does the LD50 read?
A: 4000 mg/kg

Q: Which LD50 does the source give for FC(F)(F)c1nc2c(Cl)cc(Cl)cc2[nH]1 here?
A: 3.29 mg/kg

Q: For CCOP(=S)(OCC)OCCS(=O)CC (stereo not drawn), which LD50 is on record?
A: 100 mg/kg

Q: For CCOC(=O)[C@H](CCc1ccccc1)N[C@@H](C)C(=O)N1Cc2ccccc2C[C@H]1C(=O)O, which LD50 is on record?
A: 3540 mg/kg

Q: Which LD50 does the source give for Cc1ccccc1C(C)C here?
A: 2130 mg/kg

Q: Which LD50 does the source give for C=C(C)C1CCC(C)(OP(=S)(OC)OC)CC1 (stereo not drawn) here?
A: 500 mg/kg

Q: With Cc1cc(C(C)(C)C)c(O)c(C)c1CC1=NCCN1 as the molecule, how does the LD50 read?
A: 0.8 mg/kg and 0.68 mg/kg

Q: For CNC(=O)ON=C1SCSC1(C)C, which LD50 is on record?
A: 0.67 mg/kg

Q: For COP(=O)(OC)C(O)(C(F)F)C(F)F, which LD50 is on record?
A: 9 mg/kg

Q: Which LD50 does the source give for COC(=O)C(C(C)=O)C(C)=O here?
A: 1700 mg/kg

Q: With CC[N+]1(C)[C@@H]2C[C@@H](OC(=O)[C@H](CO)c3ccccc3)C[C@H]1[C@@H]1O[C@@H]12 (stereo partly drawn) as the molecule, how does the LD50 read?
A: 2250 mg/kg

Q: With CC(C)C(OCCO)C(C)C as the molecule, how does the LD50 read?
A: 1070 mg/kg

Q: Which LD50 does the source give for O=[N+]([O-])c1ccc(O)c(CNCCCl)c1 here?
A: 25 mg/kg

Q: Which LD50 does the source give for O=S(=O)(O)c1c(O)ccc2ccccc12 here?
A: 3170 mg/kg

Q: For Cn1cc(CCc2cc[n+](CCC[N+](C)(C)C)cc2)c2ccccc21, which LD50 is on record?
A: 200 mg/kg

Q: With CCC(=O)c1ccc2c(c1)N(CC(C)N(C)C)c1ccccc1S2 (stereo not drawn) as the molecule, how does the LD50 read?
A: 500 mg/kg

Q: Which LD50 does the source give for CCN(CC)CCOc1ccc2nc(N(C)C)sc2c1 here?
A: 880 mg/kg

Q: Which LD50 does the source give for c1ccc(-c2ccc(CCOc3ncnc4ccccc34)cc2)cc1 here?
A: 1150 mg/kg

Q: With C=CC(=O)NCO as the molecule, how does the LD50 read?
A: 474 mg/kg

Q: With Cc1cc(N)ccc1N as the molecule, how does the LD50 read?
A: 98 mg/kg and 102 mg/kg

Q: With Cc1cc(C(=O)NNCc2ccccc2)no1 as the molecule, how does the LD50 read?
A: 280 mg/kg

Q: For CSCC(=NO)C(C)(C)C, which LD50 is on record?
A: 813 mg/kg

Q: For CC(=O)Nc1ccc(/N=N/c2c(S(=O)(=O)O)cc3cc(S(=O)(=O)O)cc(NC(C)=O)c3c2O)cc1, which LD50 is on record?
A: 23200 mg/kg

Q: For CC(C)CCOC=O, which LD50 is on record?
A: 9840 mg/kg

Q: For Fc1cc2[nH]c(C(F)(F)F)nc2cc1Cl, which LD50 is on record?
A: 8.66 mg/kg

Q: Which LD50 does the source give for O=COCCc1ccccc1 here?
A: 3220 mg/kg

Q: With Nc1ccc(C(=O)c2ccccc2)c(C(=O)O)c1 as the molecule, how does the LD50 read?
A: 5400 mg/kg

Q: With c1ccc(NC[Si]23OCCN(CCO2)CCO3)cc1 as the molecule, how does the LD50 read?
A: 0.328 mg/kg

Q: Which LD50 does the source give for CCn1cc(C(=O)O)c(=O)c2cc(F)c(N3CCNC(C)C3)c(F)c21 (stereo not drawn) here?
A: 3800 mg/kg and 1560 mg/kg

Q: With FC(F)(F)c1nc2c(Cl)cccc2[nH]1 as the molecule, how does the LD50 read?
A: 19.2 mg/kg

Q: With CCOP(=S)(OCC)SCn1nc(C)ccc1=O as the molecule, how does the LD50 read?
A: 45 mg/kg

Q: Which LD50 does the source give for CCCC[P+](CCCC)(CCCC)Cc1ccc(Cl)cc1Cl here?
A: 178 mg/kg

Q: With Nc1cc(Cl)ccc1Oc1ccc(Cl)cc1Cl as the molecule, how does the LD50 read?
A: 2290 mg/kg

Q: Which LD50 does the source give for CCCSP(=O)(OCC)Oc1ccccc1 (stereo not drawn) here?
A: 295 mg/kg

Q: For C=C(C)C(=O)OCC1CCC2OC2C1 (stereo not drawn), which LD50 is on record?
A: 2500 mg/kg

Q: For CCOP(=S)(OCC)Oc1cc(C)[nH]n1, which LD50 is on record?
A: 12 mg/kg

Q: Which LD50 does the source give for CNC(=O)OC1C2(C)CCC(C2)C1(C)C (stereo not drawn) here?
A: 500 mg/kg

Q: With COC(=O)c1cccc(CCN(C)Cc2ccccc2)c1 as the molecule, how does the LD50 read?
A: 700 mg/kg

Q: With CS(=O)(=O)OCCCN(CCCOS(C)(=O)=O)C1CCCCC1 as the molecule, how does the LD50 read?
A: 375 mg/kg

Q: Which LD50 does the source give for Cc1nc(Cn2cnc3c2c(=O)n(C)c(=O)n3C)no1 here?
A: 1550 mg/kg

Q: Which LD50 does the source give for CS(=O)(=O)c1ccc(N)c(Cl)c1 here?
A: 9500 mg/kg

Q: Which LD50 does the source give for CCCCC(C)=O here?
A: 2590 mg/kg

Q: With CC(C)(OO)c1cccc(C(C)(C)OO)c1 as the molecule, how does the LD50 read?
A: 1500 mg/kg

Q: For CC(C)[C@@]1(O)[C@@H](OC(=O)c2ccc[nH]2)[C@@]2(O)[C@@]3(C)C[C@]4(O)O[C@@]5([C@H](O)[C@@H](C)CC[C@]35O)[C@@]2(O)[C@@]14C, which LD50 is on record?
A: 750 mg/kg

Q: With CCOc1ccc(C(=O)COC(=O)CCC(=O)O)c2ccccc12 as the molecule, how does the LD50 read?
A: 3500 mg/kg

Q: Which LD50 does the source give for Cc1cccc(C)c1NC1=NCCCS1 here?
A: 130 mg/kg

Q: With C=CN as the molecule, how does the LD50 read?
A: 1850 mg/kg

Q: For Cc1c(COC(=O)[C@@H]2[C@H](/C=C(\Cl)C(F)(F)F)C2(C)C)cccc1-c1ccccc1 (racemic), which LD50 is on record?
A: 54.5 mg/kg

Q: With Nc1ccc2c3c([nH]c2c1)CCCC3 as the molecule, how does the LD50 read?
A: 290 mg/kg

Q: With CCOC(=O)N(c1cccc(C(=O)c2ccccc2)c1)S(=O)(=O)C(F)(F)F as the molecule, how does the LD50 read?
A: 4700 mg/kg

Q: With CCCc1cc(C(N)=S)ccn1 as the molecule, how does the LD50 read?
A: 1320 mg/kg

Q: Which LD50 does the source give for CCCCc1c(C)nc(N(C)C)nc1O here?
A: 2350 mg/kg

Q: For Cc1ncsc1C, which LD50 is on record?
A: 960 mg/kg

Q: For CC1(C)CC2(NC(=O)N(CCCN3CCC(O)CC3)C2=O)c2cc(Cl)ccc2O1 (stereo not drawn), which LD50 is on record?
A: 858 mg/kg

Q: With NNC(=S)NN as the molecule, how does the LD50 read?
A: 21.6 mg/kg
